From US10385400B2, “Methods and kits for monitoring response to radiation therapies in cancer” (RNA Diagnostics Inc., priority 2012, dated 2019)
Where two headings read alike, the source gives them in different places.

Tests used:
[1] = test system: MCF-7 cells; test: MCF-7 cells treated with increasing doses of Epirubicin with and without 10 Gy radiation (RIN, RDI, RNA concentration); assay type: cell-based
Procedure: FIG. 9: Graphs of MCF-7 cells were treated with increasing doses of Epirubicin with and without 10 Gy radiation. A) RIN value vs. Epirubicin; B) RDI value vs. Epirubicin; C) RNA concentration vs. Epirubicin Dose.

[2] = test system: A2780 cells; test: A2780 cells treated with increasing doses of Epirubicin with and without 10 Gy radiation (RIN, RDI, RNA concentration); assay type: cell-based; details: with 10 Gy radiation, 96 h post-radiation
Procedure: A2780 cells were treated with increasing doses of Epirubicin with and without 10 Gy radiation.A2780 cells were plated into 6 cm plates in 4 ml of RPMI culture medium. The plates were placed in the incubator and the cells were allowed to adhere overnight. The next day, the medium was removed from all plates and new media containing the appropriate epirubicin concentration (1 pM, 5 pM, 20 nM, 50 nM, and 100 nM) was added to the plates. Cells were pre-treated for 24 h with epirubicin prior to receiving radiation treatment. The following day (24 h post epirubicin drug-treatment), the cells were given 10 Gy of x-ray radiation treatment (300 kV, 9 mA) in approximately 4.3 min of x-ray exposure using a RS320 Irradiation System (Gulmay Medical) The cells were returned to the cell culture incubator, and RNA was extracted from the cells 96 h post-radiation treatment (which corresponds to 120 h post-epirubicin treatment).

[3] = test system: anthracycline-resistant metastatic breast cancer; details: cited from earlier work
[4] = test system: breast cancer, T3, T4 or TxN2 disease; details: cited from earlier work
[5] = test system: SKBR3 breast tumour cells; test: RNA concentration and RIN in SKBR3 cells after radiation with or without docetaxel; assay type: cell-based
Procedure: It was then examined whether similar observations could be observed in vitro for specific breast tumour cell lines. […] If cells were pre-treated with 0.1 μM docetaxel prior to 10 Gray radiation, a 5-fold reduction in cellular RNA concentration was observed (19% of untreated cells). RNA concentration decreases 2 fold (or more) in BT-20, A2780 and MB-468 cells with radiation only. […] Concurrent docetaxel treatment with radiation therapy dramatically reduces cellular RNA content, consistent with the observed findings for patients with locally advanced breast cancer treated with FEC-D chemotherapy followed by radiation treatment. Similar findings were observed when the effects of the above treatments on RIN values were examined in SKBR3 (HER2+, ER−) cells (FIG. 6B).

[6] = test system: metastatic breast cancer; details: cited from earlier work
[7] = test system: A2780 ovarian tumour cells; test: RNA concentration and RIN in A2780 cells after radiation with or without docetaxel; assay type: cell-based
Procedure: Experiments were conducted to assess whether radiation with or without docetaxel treatment could induce changes in cellular RNA concentration and/or RIN values in A2780 ovarian tumour cells. […] In contrast under the tested conditions, radiation doses up to 5 Gray had no effect on cellular RNA integrity, as no changes in RIN values were observed compared to samples prior to radiation treatment (FIG. 5B). If cells were pre-incubated for 24 hours with 0.1 μM docetaxel prior to 10 Gray radiation treatment, the cellular RIN value decreased to 75% of pre-treatment values. There were additional decreases in RIN when radiation and chemotherapy were used together concurrently. […] Moreover, the combination of both radiation and docetaxel treatment induces even stronger reductions in both cellular RNA content and RNA integrity. These observations are consistent with those described above for tumours of patients with locally advanced breast cancer, in particular for the combined therapy post-treatment, where RNA concentration fell dramatically in response to FEC-D chemotherapy with concurrent radiation therapy and where differences between between responding patients (pCR) and non-reponding patients (no pCR) appeared to be observed post-treatment.

[8] = test system: breast cancer, T1c-T3 N0-N1 disease; details: preoperative AC alone versus AC with addition of docetaxel; cited from earlier work
[9] = test system: A2780 cells; test: A2780 cells treated with 5 nM Docetaxel, 10 Gy radiation or both for 72 or 96 hours (RIN, RDI); assay type: cell-based; details: n=3
Procedure: In another experiment, A2780 cells were treated with 5 nM Docetaxel, 10 Gy Radiation and 10 Gy Radiation+5 nM Docetaxel for 72 hours or 96 hours.

[10] = test system: MCF-7 breast tumour cells; test: RNA concentration and RIN in MCF-7 cells after radiation with or without docetaxel; assay type: cell-based
Procedure: The effects of the above treatments on MCF-7 (ER+, HER2−) cells (FIGS. 7A and 7B) were examined, findings were similar to those of SKBR3 cells, with 4% and 73% reductions in RNA levels observed for the 10 Gray and 10 Gray/0.1 μM docetaxel treatments, respectively. […] Moreover, only a 4% reduction in cellular RIN values were observed when cells were pre-treated with 0.1 μM docetaxel prior to the 10 Gray radiation.

[11] = test system: stage IIB to III locally advanced breast cancer; details: cited from earlier work
[12] = test system: locally advanced breast cancer; details: paclitaxel 175 mg/m^2 and 5FU with 50.4 Gy, then 3 cycles of FEC, then surgery; 23 patients; cited from earlier work
[13] = after 4 cycles of CVAP, 4 cycles of docetaxel versus 4 more cycles of CVAP, intention-to-treat
[14] = pre-treated with 0.1 μM docetaxel prior to 10 Gray radiation
[15] = 35 mg/m^2 weekly for 3 of every 4 weeks
[16] = paclitaxel 30 mg/m^2 twice weekly with radiation to 45 Gy, then surgery

With `COc1cccc2c1C(=O)c1c(O)c3c(c(O)c1C2=O)C[C@@](O)(C(=O)CO)C[C@@H]3O[C@H]1C[C@H](N)[C@@H](O)[C@H](C)O1` [Epirubicin] the “RIN value vs Epirubicin dose” value ([1]; combined with 10 Gy radiation) was “loss in RIN value”, the “RNA concentration vs Epirubicin dose” value ([1]; increasing doses of Epirubicin) was “loss in RNA concentration” and the “RDI value vs Epirubicin dose” value ([1]; with radiation, up to 100 uM Epirubicin) was “increase in RDI value”. For the same compound, the “RIN value vs Epirubicin dose” value ([2]; low doses of Epirubicin) was “loss in RIN value”, the “RDI value vs Epirubicin dose” value ([2]; low drug doses) was “RDI values increase” and the “RNA concentration vs Epirubicin dose” value ([2]; low drug doses) was “increased loss in RNA concentration”.
For `CC(=O)O[C@@]12CO[C@@H]1C[C@H](O)[C@@]1(C)C(=O)[C@H](O)C3=C(C)[C@@H](OC(=O)[C@H](O)[C@@H](NC(=O)OC(C)(C)C)c4ccccc4)C[C@@](O)([C@@H](OC(=O)c4ccccc4)[C@H]21)C3(C)C` [docetaxel], the response rates [3] is given as “up to 50%”, the DFS ([4]; 38 months median follow-up) is given as 90% and the OS ([4]; 38 months median follow-up) is given as 97%. The cCR [4, 13] was 94%, the pCR [4, 13] was 31% and the “effect of concurrent docetaxel on effects of radiation on RNA content and RNA integrity” value ([5]; 0.1 μM docetaxel, 10 Gray) was “strongly augmented”. The “cellular RNA concentration, % of untreated cells” value [5, 14] was 19%, the “reduction in cellular RNA concentration” value [5, 14] was 5 fold and the “reduction in cellular RIN values” ([5]; radiation, cells pre-treated with docetaxel) was 9%. The “overall survival (OS)” value [6, 15] was 18.6 months, the progression-free survival [6, 15] was 5.5 months and the “overall survival (OS)” value ([6]; 100 mg/m^2 every 3 weeks) was 18.3 months. The progression-free survival ([6]; 100 mg/m^2 every 3 weeks) was 5.7 months, the overall serious toxicity ([6]; Q 3-week arm) was 88.1% and the overall serious toxicity ([6]; weekly arm) was 55.9%. The “effect of concurrent docetaxel on radiation-induced reduction of RNA content and integrity” value ([7]; 0.1 μM docetaxel, 10 Gray) was “strongly augmented”, the “cellular RIN value, % of pre-treatment values” ([7]; pre-incubated 24 hours with 0.1 μM docetaxel prior to 10 Gray radiation) was 75% and the “additional reduction of cellular RNA concentration” value ([7]; pre-incubation with 0.1 μM docetaxel, 10 Gray radiation, versus radiation alone) was 6.5 fold. For the same compound, the “clinical complete response (cCR)” value [8] was 63.6%, the pCR [8] was 26.1% and the “proportion of patients with negative nodes” value [8] was 58.2%. For the same compound, the “mean RDI value” ([9]; 10 Gy radiation + 5 nM Docetaxel compared with Docetaxel alone, 96 hr) was “increase in RDI value”, the “mean RIN value” ([9]; 10 Gy radiation + 5 nM Docetaxel, 72 hr) was “increased loss in RIN value” and the “effect of concurrent docetaxel on effect of radiation on RNA content and integrity” value ([10]; 0.1 μM docetaxel, 10 Gray) was “only slightly augmented”. The “reduction in RNA levels” value ([10]; 10 Gray/0.1 μM docetaxel) was 73% and the “reduction in cellular RIN values” [10, 14] was 4%.
For `CC(=O)O[C@H]1C(=O)[C@@]2(C)[C@H]([C@H](OC(=O)c3ccccc3)[C@]3(O)C[C@H](OC(=O)[C@H](O)[C@@H](NC(=O)c4ccccc4)c4ccccc4)C(C)=C1C3(C)C)[C@]1(OC(C)=O)CO[C@@H]1C[C@@H]2O` [paclitaxel], the “patients achieving a pCR” value [11, 16] is listed as “Sixteen”, the “patients achieving a pPR” value [11, 16] is listed as 18% and the “grade 4 leucopenia” value ([11]; postoperative phase) is listed as 10%. The “grade 4 toxicities” value ([11]; preoperative chemoradiation phase, paclitaxel 30 mg/m^2 twice weekly with radiation to 45 Gy) was “No grade 4 toxicities were observed”, the “clinical CR” value [12] was 82.6% and the “overall 2-year survival” value [12] was 80.7%. The pCR [12] was 52.2%.
